The source of these data is patent US20260274829A1, “NEW E3 UBIQUITIN LIGASE LIGAND, PROTEIN DEGRADATION AGENT AND USE THEREOF” (GLUETACS THERAPEUTICS (SHANGHAI) CO., LTD., priority 2023, published 2026).

A value given as a limit tells only on which side of the number the result lay.

The target of this experiment is T1, human Cereblon WT GST-tagged protein (Homo sapiens, UniProt Q96SW2).
T1 construct: purchased CISBIO 64BDCRBNPEH
T1 sequence (Q96SW2 whole entry): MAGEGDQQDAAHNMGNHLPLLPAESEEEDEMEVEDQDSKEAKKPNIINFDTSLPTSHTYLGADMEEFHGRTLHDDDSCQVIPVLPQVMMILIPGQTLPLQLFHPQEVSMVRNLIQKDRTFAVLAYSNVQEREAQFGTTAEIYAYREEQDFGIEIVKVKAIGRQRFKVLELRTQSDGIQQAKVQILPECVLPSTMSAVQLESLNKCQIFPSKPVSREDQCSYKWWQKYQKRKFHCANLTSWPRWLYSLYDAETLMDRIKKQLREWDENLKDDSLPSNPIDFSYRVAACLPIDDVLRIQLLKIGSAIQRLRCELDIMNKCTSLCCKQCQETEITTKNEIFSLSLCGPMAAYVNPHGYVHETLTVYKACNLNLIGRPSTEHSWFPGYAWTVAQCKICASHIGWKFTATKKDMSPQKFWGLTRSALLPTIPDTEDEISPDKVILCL
In words: CRBN binding, HTRF CEREBLON BINDING kit. The note with it: CRBN binding, HTRF CEREBLON BINDING kit. The procedure: The CEREBLON BINDING kits (specification: 10,000 tests; product number: Catalog #64BDCRBNPEH; CISBIO company) was used to determine the CRBN binding ability of the compounds to be tested through a HTRF method (homogeneous time-resolved fluorescence). The specific methods are as follows: • 1. […] Then, 2.5 μL of human Cereblon WT GST-tagged protein solution was added to each well. Finally, 5 μL of the thoroughly mixed Thalidomide-Re reagent and GST Eu antibody working solution were added to each of the aforementioned wells. […] The blank control wells were sequentially added with 2.5 μL of diluent #9 (1×) solution, 2.5 μL of binding buffer, and 5 μL of thoroughly mixed Thalidomide-Re reagent and GST Eu antibody working solution. • 4. After sealing and incubating the solutions in the aforementioned wells at room temperature for 3 hours, the absorbance values at emission wavelengths of 620 nm and 665 nm were detected by the HTRF method using a Spark microplate reader (V3.1 SP1).
The corresponding CRBN binding inhibition rate was calculated using the following method:
[formula] [formula] [formula] • Note: OD 665 nmcompound is the absorbance value of each well of the compounds to be tested of the present disclosure at an emission wavelength of 665 nm. • OD 620 nmcompound is the absorbance value of each well of the compounds to be tested of the present disclosure at an emission wavelength of 620 nm. • OD 665 nmcontrol is the absorbance value of the blank control well at an emission wavelength of 665 nm. • OD 620 nmcontrol is the absorbance value of the blank control well at an emission wavelength of 620 nm. • OD 665 nmStd0 is the absorbance value of the solvent control well at an emission wavelength of 665 nm. • OD 620 nmStd0 is the absorbance value of the solvent control well at an emission wavelength of 620 nm.
In general terms: TR-FRET usually uses a lanthanide donor and a delayed reading to cut background.
The term IC50 denotes the concentration that gives 50% inhibition. Read a low IC50 as inhibition by little substance. The compound `Nc1nnc(-c2ccccc2O)cc1N1CCN(Cc2cccc(N3CCC(=O)NC3=O)c2)CC1` [GT-04962, 1-(3-((4-(3-amino-6-(2-hydroxyphenyl)pyridazin-4-yl)piperazin-1-yl)methyl)phenyl)dihydropyrimidine-2,4(1H,3H)-dione] returned an IC50 of 1000 to 1900 nM.
In turn, `O=C1CCN(c2cccc(CN3CCC(n4cc(NC(=O)c5coc(-c6ccnc(NCC7CC7)c6)n5)c(C(F)F)n4)CC3)c2)C(=O)N1` [GT-04965, 2-(2-((cyclopropylmethyl)amino)pyridin-4-yl)-N-(3-(difluoromethyl)-1-(1-(3-(2,4-dioxotetrahydropyrimidin-1(2H)-yl)benzyl)piperidin-4-yl)-1H-pyrazol-4-yl)oxazole-4-carboxamide] had an IC50 of 500 to 1000 nM.
Then `Cc1ccc(-c2c(C)noc2C)cc1N(CC1CCN(Cc2ccc(N3CCC(=O)NC3=O)cc2F)CC1)c1ccc(C2(C#N)CC2)cc1` [GT-04973, 1-(4-((5-(3,5-dimethylisoxazol-4-yl)-2-methylphenyl)((1-(4-(2,4-dioxotetrahydropyrimidin-1(2H)-yl)-2-fluorobenzyl)piperidin-4-yl)methyl)amino)phenyl)cyclopropane-1-carbonitrile], with 1000 to 1900 nM.
`O=C1CCN(c2cccc(CN3CCN(Cc4ccc5c(c4)nc(NC(=O)c4cccc(C(F)(F)F)c4)n5[C@H]4CC[C@@H](CO)CC4)CC3)c2)C(=O)N1` [GT-04977, N-(5-((4-(3-(2,4-dioxotetrahydropyrimidin-1(2H)-yl)benzyl)piperazin-1-yl)methyl)-1-((1s,4s)-4-(hydroxymethyl)cyclohexyl)-1H-benzo[d]imidazol-2-yl)-3-(trifluoromethyl)benzamide] registered an IC50 of 500 to 1000 nM.
As for `O=C1CCC(c2ccc(CN3CCN(Cc4ccc5c(c4)nc(NC(=O)c4cccc(C(F)(F)F)c4)n5[C@H]4CC[C@@H](CO)CC4)CC3)cc2)C(=O)N1` (stereo partly shown) [GT-04978, N-(5-((4-(4-(2,6-dioxopiperidin-3-yl)benzyl)piperazin-1-yl)methyl)-1-((1s,4s)-4-(hydroxymethyl)cyclohexyl)-1H-benzo[d]imidazol-2-yl)-3-(trifluoromethyl)benzamide], the IC50 was in the range of 1000 to 1900 nM.
Then `O=C1CCC(Nc2cccc(CN3CCN(c4ccc5c(c4)nc(NC(=O)c4cccc(C(F)(F)F)c4)n5[C@H]4CC[C@@H](CO)CC4)CC3)c2)C(=O)N1` (stereo partly shown) [GT-04985, N-(5-(4-(3-((2,6-dioxopiperidin-3-yl)amino)benzyl)piperazin-1-yl)-1-((1s,4s)-4-(hydroxymethyl)cyclohexyl)-1H-benzo[d]imidazol-2-yl)-3-(trifluoromethyl)benzamide], with 500 to 1000 nM.
For the compound `Nc1nnc(-c2ccccc2O)cc1N1CCN(Cc2ccc(C3CCC(=O)NC3=O)cc2)CC1` (stereo not shown) [GT-05015, 3-(4-((4-(3-amino-6-(2-hydroxyphenyl)pyridazin-4-yl)piperazin-1-yl)methyl)phenyl)piperidine-2,6-dione], the concentration for half-maximal inhibition (IC50) was less than 500 nM.
In turn, `Nc1nnc(-c2ccccc2O)cc1N1CCN(Cc2ccc(N3CCC(=O)NC3=O)cn2)CC1` [GT-05016, 1-(6-((4-(3-amino-6-(2-hydroxyphenyl)pyridazin-4-yl)piperazin-1-yl)methyl)pyridin-3-yl)dihydropyrimidine-2,4(1H,3H)-dione] displayed an IC50 of 500 to 1000 nM.
With `O=C1CCC(c2ccc(CN3CCC(N4CCN(c5ccc6c(c5)nc(NC(=O)c5cccc(C(F)(F)F)c5)n6[C@H]5CC[C@@H](CO)CC5)CC4)CC3)cc2)C(=O)N1` (stereo partly shown) [GT-05020, N-(5-(4-(1-(4-(2,6-dioxopiperidin-3-yl)benzyl)piperidin-4-yl)piperazin-1-yl)-1-((1s,4s)-4-(hydroxymethyl)cyclohexyl)-1H-benzo[d]imidazol-2-yl)-3-(trifluoromethyl)benzamide] the figure was 1000 to 1900 nM; with `O=C1CCN(c2ccc(CN3CCC(N4CCN(c5ccc6c(c5)nc(NC(=O)c5cccc(C(F)(F)F)c5)n6[C@H]5CC[C@@H](CO)CC5)CC4)CC3)cc2)C(=O)N1` [GT-05021, N-(5-(4-(1-(4-(2,4-dioxotetrahydropyrimidin-1(2H)-yl)benzyl)piperidin-4-yl)piperazin-1-yl)-1-((1s,4s)-4-(hydroxymethyl)cyclohexyl)-1H-benzo[d]imidazol-2-yl)-3-(trifluoromethyl)benzamide], 1000 to 1900 nM.
The compound `O=C1CCN(c2cccc(CN3CCC(N4CCN(c5ccc6c(c5)nc(NC(=O)c5cccc(C(F)(F)F)c5)n6[C@H]5CC[C@@H](CO)CC5)CC4)CC3)c2)C(=O)N1` [GT-05022, N-(5-(4-(1-(3-(2,4-dioxotetrahydropyrimidin-1(2H)-yl)benzyl)piperidin-4-yl)piperazin-1-yl)-1-((1s,4s)-4-(hydroxymethyl)cyclohexyl)-1H-benzo[d]imidazol-2-yl)-3-(trifluoromethyl)benzamide] had an IC50 of 1000 to 1900 nM.
`O=C1CCN(c2ccc(CN3CCC(N4CCN(c5ccc6c(c5)nc(NC(=O)c5cccc(C(F)(F)F)c5)n6[C@H]5CC[C@@H](CO)CC5)CC4)CC3)nc2)C(=O)N1` [GT-05024, N-(5-(4-(1-((5-(2,4-dioxotetrahydropyrimidin-1(2H)-yl)pyridin-2-yl)methyl)piperidin-4-yl)piperazin-1-yl)-1-((1s,4s)-4-(hydroxymethyl)cyclohexyl)-1H-benzo[d]imidazol-2-yl)-3-(trifluoromethyl)benzamide] registered an IC50 of 1000 to 1900 nM.
As to `O=C1CCN(c2ccc(CN3CCC(n4cc(NC(=O)c5cnn6ccc(N7C[C@H]8C[C@@H]7CO8)nc56)c(C(F)F)n4)CC3)cc2)C(=O)N1` [GT-05029, 5-((1R,4R)-2-oxa-5-azabicyclo[2.2.1]heptan-5-yl)-N-(3-(difluoromethyl)-1-(1-(4-(2,4-dioxotetrahydropyrimidin-1(2H)-yl)benzyl)piperidin-4-yl)-1H-pyrazol-4-yl)pyrazolo[1,5-a]pyrimidine-3-carboxamide], the IC50 fell in the range of 500 to 1000 nM.
Then `O=C1CCC(c2ccc(CN3CCC(n4cc(NC(=O)c5cnn6ccc(N7C[C@H]8C[C@@H]7CO8)nc56)c(C(F)F)n4)CC3)cc2)C(=O)N1` (stereo partly drawn) [GT-05050, 5-((1R,4R)-2-oxa-5-azabicyclo[2.2.1]heptan-5-yl)-N-(3-(difluoromethyl)-1-(1-(4-(2,6-dioxopiperidin-3-yl)benzyl)piperidin-4-yl)-1H-pyrazol-4-yl)pyrazolo[1,5-a]pyrimidine-3-carboxamide], with less than 500 nM; and `O=C1CCN(c2cccc(CN3CCC(n4cc(NC(=O)c5cnn6ccc(N7C[C@H]8C[C@@H]7CO8)nc56)c(C(F)F)n4)CC3)c2)C(=O)N1` [GT-05051, 5-((1R,4R)-2-oxa-5-azabicyclo[2.2.1]heptan-5-yl)-N-(3-(difluoromethyl)-1-(1-(3-(2,4-dioxotetrahydropyrimidin-1(2H)-yl)benzyl)piperidin-4-yl)-1H-pyrazol-4-yl)pyrazolo[1,5-a]pyrimidine-3-carboxamide], with 500 to 1000 nM; and `O=C1CCC(Nc2cccc(CN3CCC(n4cc(NC(=O)c5cnn6ccc(N7C[C@H]8C[C@@H]7CO8)nc56)c(C(F)F)n4)CC3)c2)C(=O)N1` (stereo partly drawn) [GT-05052, 5-((1R,4R)-2-oxa-5-azabicyclo[2.2.1]heptan-5-yl)-N-(3-(difluoromethyl)-1-(1-(3-((2,6-dioxopiperidin-3-yl)amino)benzyl)piperidin-4-yl)-1H-pyrazol-4-yl)pyrazolo[1,5-a]pyrimidine-3-carboxamide], with 1000 to 1900 nM.
For the compound `O=C1CCN(c2ccc(CN3CCC(n4cc(NC(=O)c5cnn6ccc(N7C[C@H]8C[C@@H]7CO8)nc56)c(C(F)F)n4)CC3)nc2)C(=O)N1` [GT-05053, 5-((1R,4R)-2-oxa-5-azabicyclo[2.2.1]heptan-5-yl)-N-(3-(difluoromethyl)-1-(1-((5-(2,4-dioxotetrahydropyrimidin-1(2H)-yl)pyridin-2-yl)methyl)piperidin-4-yl)-1H-pyrazol-4-yl)pyrazolo[1,5-a]pyrimidine-3-carboxamide], the IC50 was 500 to 1000 nM.
As for `Nc1nnc(-c2cc(F)ccc2O)cc1N1CCN(Cc2ccc(C3CCC(=O)NC3=O)cc2)CC1` (stereo not shown) [GT-05062, 3-(4-((4-(3-amino-6-(5-fluoro-2-hydroxyphenyl)pyridazin-4-yl)piperazin-1-yl)methyl)phenyl)piperidine-2,6-dione], the IC50 lay within 500 to 1000 nM.
Regarding `O=C1CCC(c2ccc(CN3C[C@@H]4C[C@H]3CN4c3ccc(-c4cc(F)c5c(c4)C(=O)N(C(C(=O)Nc4nccs4)c4ncn6c4CCC6)C5)cc3)cc2)C(=O)N1` (stereo partly drawn) [GT-05115, 2-(6,7-dihydro-5H-pyrrolo[1,2-c]imidazol-1-yl)-2-(6-(4-((1S,4S)-5-(4-(2,6-dioxopiperidin-3-yl)benzyl)-2,5-diazabicyclo[2.2.1]heptan-2-yl)phenyl)-4-fluoro-1-oxoisoindolin-2-yl)-N-(thiazol-2-yl)acetamide], the IC50 was in the range of 500 to 1000 nM.
